Test results as given in patent US20260101893A1, “FUNGICIDAL COMPOSITIONS” (SYNGENTA CROP PROTECTION AG, priority 2022, published 2026).

Tests used:
Type in all cases: cell-based
[1] = test system: Zymoseptoria tritici (Septoria tritici); experiment: Fungicidal activity against Zymoseptoria tritici (Septoria tritici) (leaf blotch), liquid culture in PDB, 96-well microtiter plate
Method: (§1) Fungicidal activity against Zymoseptoria tritici (Septoria tritici) (leaf blotch) Conidia of the fungus from cryogenic storage were directly mixed into nutrient broth (PDB potato dextrose broth). A DMSO solution of the test compounds was placed into a microtiter plate (96-well format) and the nutrient broth containing the fungal spores was added to it. The test plates were incubated at 24° C. and after 72 hours the fungal growth was assessed visually and compared to the growth in untreated wells. The scores were recorded as % control compared to the untreated wells. The action to be expected E for a given active ingredient combination was calculated using the COLBY formula as follows: • ppm=milligrams of active ingredient (=a.i.) per liter of spray mixture • X=% action by active ingredient (A) using p ppm of active ingredient • Y=% action by active ingredients (B+C) using q ppm of active ingredient. According to COLBY, the expected (additive) action of active ingredients (A)+(B+C) using p+q ppm of active ingredient is: [formula]

[2] = test system: Glomerella lagenarium (Colletotrichum lagenarium); experiment: Fungicidal activity against Glomerella lagenarium (Colletotrichum lagenarium) liquid culture/cucumber/preventative (Anthracnose)
Method: as §1, with “Glomerella lagenarium (Colletotrichum lagenarium) liquid culture/cucumber/preventative (Anthracnose)” for “Zymoseptoria tritici (Septoria tritici) (leaf blotch)”

[3] = test system: Mycosphaerella arachidis Syn. Cercospora arachidicola; experiment: Fungicidal activity against Mycosphaerella arachidis syn. Cercospora arachidicola (brown leaf spot), liquid culture in PDB, 96-well microtiter plate
Method: as §1, with “Activity Against Mycosphaerella arachidis Syn. Cercospora arachidicola (Brown Leaf Spot)” for “activity against Zymoseptoria tritici (Septoria tritici) (leaf blotch)”, “5 days” for “72 hours”

For `CO/C=C(\Oc1cc(C2CCCCC2)ccc1C)C(=O)OC` [Compound X.04, methyl (Z)-2-(5-cyclohexyl-2-methyl-phenoxy)-3-methoxy-prop-2-enoate], the “% control Score” value ([1]; X.04 0.02 ppm) was 0%, the “% control Score” value ([1]; X.04 0.02 ppm alone) was 0% and the “% control Score” value ([1]; X.04 0.02 ppm, Table B2) was 0%. The “% control Score” value ([1]; X.04 0.07 ppm) was 0%, the “% control Score” value ([1]; X.04 0.07 ppm alone) was 0% and the “% control Score” value ([1]; X.04 0.07 ppm, Table B2) was 0%. For the same compound, the “% control Score” value ([1]; X.04 0.2 ppm) was 0%, the “% control Score” value ([1]; X.04 0.2 ppm alone) was 0% and the “% control Score” value ([1]; X.04 0.2 ppm, Table B2) was 0%. The “Zymoseptoria tritici % control Score” value ([1]; ppm: X.04 0.02) was 0%, the “Zymoseptoria tritici % control Score” value ([1]; ppm: X.04 0.07) was 0% and the “Zymoseptoria tritici % control Score” value ([1]; ppm: X.04 0.2) was 0%. For the same compound, the “% control Score” value ([2]; X.04 0.02 ppm) was 0%, the “% control Score” value ([2]; X.04 0.02 ppm alone) was 0% and the “% control Score” value ([2]; X.04 0.02 ppm, Table B2) was 0%. The “% control Score” value ([2]; X.04 0.07 ppm) was 70%, the “% control Score” value ([2]; X.04 0.07 ppm alone) was 70% and the “% control Score” value ([2]; X.04 0.07 ppm, Table B2) was 70%. The “% control Score” value ([2]; X.04 0.2 ppm) was 100%, the “% control Score” value ([2]; X.04 0.2 ppm alone) was 100% and the “% control Score” value ([2]; X.04 0.2 ppm, Table B2) was 100%. For the same compound, the “Colletotrichum lagenarium % control Score” value ([2]; ppm: X.04 0.02) was 0%, the “Colletotrichum lagenarium % control Score” value ([2]; ppm: X.04 0.07) was 70% and the “Colletotrichum lagenarium % control Score” value ([2]; ppm: X.04 0.2) was 100%. For the same compound, the “% control Score” value ([3]; X.04 0.02 ppm) was 70%, the “% control Score” value ([3]; X.04 0.02 ppm alone) was 70% and the “% control Score” value ([3]; X.04 0.02 ppm, Table B2) was 70%. For the same compound, the “% control Score” value ([3]; X.04 0.07 ppm) was 70%, the “% control Score” value ([3]; X.04 0.07 ppm alone) was 90% and the “% control Score” value ([3]; X.04 0.07 ppm, Table B2) was 90%. For the same compound, the “% control Score” value ([3]; X.04 0.2 ppm) was 70%, the “% control Score” value ([3]; X.04 0.2 ppm alone) was 90% and the “% control Score” value ([3]; X.04 0.2 ppm, Table B2) was 90%. For the same compound, the “Mycosphaerella arachidis % control Score” value ([3]; ppm: X.04 0.02) was 70%, the “Mycosphaerella arachidis % control Score” value ([3]; ppm: X.04 0.07) was 90% and the “Mycosphaerella arachidis % control Score” value ([3]; ppm: X.04 0.2) was 90%.
